Experimental data: article PMC6409085, “Three odorant-binding proteins are involved in the behavioral response of Sogatella furcifera to rice plant volatiles” (PeerJ, 2019)
Several values for one entry are separate records, joined by “and”; a condition that tells them apart may be missing. Equal values may be shown once.

Columns and labels:
Test in all cases: biochemical
Assay type in all cases: binding
[1] = molecular target: SfurOBP3 (Sogatella furcifera, UniProt V5T818); details: for Fluorescence competitive binding assay, fluorescence intensity: OBP3, three replicate columns
SfurOBP3, sequence (V5T818 entry or part of it): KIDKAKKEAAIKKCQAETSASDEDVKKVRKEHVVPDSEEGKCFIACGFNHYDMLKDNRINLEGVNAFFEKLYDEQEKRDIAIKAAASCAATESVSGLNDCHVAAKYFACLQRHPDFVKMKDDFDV
How it was run: (§1)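 In 50 mM Tris-HCl pH 7.4, odorants displace 1-NPN (2.0 µM) from 2.0 µM protein. Emission at 390–490 nm under 337 nm excitation is measured 2 min after competitor addition, in triplicate. Ki is obtained from IC50 and the 1-NPN dissociation constant.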

[2] = molecular target: SfurOBP1 (Sogatella furcifera, UniProt V5T8N5); details: for Fluorescence competitive binding assay, fluorescence intensity: OBP1, three replicate columns
SfurOBP1, sequence (V5T8N5 entry or part of it): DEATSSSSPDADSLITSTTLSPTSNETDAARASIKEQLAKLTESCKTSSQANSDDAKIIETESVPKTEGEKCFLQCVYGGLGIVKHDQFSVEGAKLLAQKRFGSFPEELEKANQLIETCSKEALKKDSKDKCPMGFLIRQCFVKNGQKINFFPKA
How it was run: as §1

[3] = molecular target: SfurOBP11 (Sogatella furcifera, UniProt V5T6E3)
SfurOBP11, sequence (V5T6E3 entry or part of it): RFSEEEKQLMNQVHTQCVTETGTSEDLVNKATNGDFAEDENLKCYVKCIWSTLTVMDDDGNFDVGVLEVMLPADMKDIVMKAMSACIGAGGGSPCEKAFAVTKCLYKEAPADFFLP
How it was run: as §1

[4] = molecular target: SfurOBP2 (Sogatella furcifera, UniProt V5T759)
SfurOBP2, sequence (V5T759 entry or part of it): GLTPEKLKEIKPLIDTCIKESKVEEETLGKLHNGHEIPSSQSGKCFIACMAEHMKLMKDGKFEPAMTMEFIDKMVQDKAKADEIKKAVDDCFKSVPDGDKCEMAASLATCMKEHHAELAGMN
How it was run: as §1

- Fluorescence competitive binding assay, fluorescence intensity ([1]; ligand concentration 2): 81785 and 76872 and 83999
- Fluorescence competitive binding assay, fluorescence intensity ([1]; ligand concentration 4): 101881 and 87909 and 87470
- Fluorescence competitive binding assay, fluorescence intensity ([1]; ligand concentration 6): 71457 and 61006 and 51881
- Fluorescence competitive binding assay, fluorescence intensity ([1]; ligand concentration 8): 71819 and 64171 and 69972
- Fluorescence competitive binding assay, fluorescence intensity ([1]; ligand concentration 10): 63459 and 67080 and 84824
- Fluorescence competitive binding assay, fluorescence intensity ([1]; ligand concentration 12): 64327 and 73125 and 73637
- Fluorescence competitive binding assay, fluorescence intensity ([1]; ligand concentration 14): 85412 and 71741 and 71210
- Fluorescence competitive binding assay, fluorescence intensity ([1]; ligand concentration 16): 78313 and 80279 and 70309
- Fluorescence competitive binding assay, fluorescence intensity ([1]; ligand concentration 18): 77162 and 77902 and 55555
- Fluorescence competitive binding assay, fluorescence intensity ([1]; ligand concentration 20): 68113 and 75065 and 101895
- IC50 ([1]; SfurOBP3, protein and 1-NPN both 2.0 µM, competitor 2-20 µM, read-out: IC50): > 20 µM
- Fluorescence competitive binding assay, fluorescence intensity ([2]; ligand concentration 2 (μM)): 7330 and 7109 and 7550
- Fluorescence competitive binding assay, fluorescence intensity ([2]; ligand concentration 4 (μM)): 7885 and 9070 and 8350
- Fluorescence competitive binding assay, fluorescence intensity ([2]; ligand concentration 6 (μM)): 9355 and 9996 and 9183
- Fluorescence competitive binding assay, fluorescence intensity ([2]; ligand concentration 8 (μM)): 11640 and 10265 and 9349
- Fluorescence competitive binding assay, fluorescence intensity ([2]; ligand concentration 10 (μM)): 10389 and 10452 and 10917
- Fluorescence competitive binding assay, fluorescence intensity ([2]; ligand concentration 12 (μM)): 10679 and 10989 and 10151
- Fluorescence competitive binding assay, fluorescence intensity ([2]; ligand concentration 14 (μM)): 12105 and 10979 and 11552
- Fluorescence competitive binding assay, fluorescence intensity ([2]; ligand concentration 16 (μM)): 10141 and 15672 and 8010
- Fluorescence competitive binding assay, fluorescence intensity ([2]; ligand concentration 18 (μM)): 13868 and 12649 and 12554
- Fluorescence competitive binding assay, fluorescence intensity ([2]; ligand concentration 20 (μM)): 12803 and 13119 and 10975
- IC50 ([2]; SfurOBP1, protein and 1-NPN both 2.0 µM, competitor 2-20 µM, read-out: IC50): > 20 µM
- IC50 ([3]; SfurOBP11, protein and 1-NPN both 2.0 µM, competitor 2-20 µM, read-out: IC50): 3.5 µM
- Fluorescence intensity, fluorescence competitive binding assay, OBP11 ([3]; ligand concentration 2, replicate 1): 16266
- Fluorescence intensity, fluorescence competitive binding assay, OBP11 ([3]; ligand concentration 2, replicate 2): 15087
- Fluorescence intensity, fluorescence competitive binding assay, OBP11 ([3]; ligand concentration 2, replicate 3): 17001
- Fluorescence intensity, fluorescence competitive binding assay, OBP11 ([3]; ligand concentration 4, replicate 1): 17687
- Fluorescence intensity, fluorescence competitive binding assay, OBP11 ([3]; ligand concentration 4, replicate 2): 17526
- Fluorescence intensity, fluorescence competitive binding assay, OBP11 ([3]; ligand concentration 4, replicate 3): 17848
- Fluorescence intensity, fluorescence competitive binding assay, OBP11 ([3]; ligand concentration 6, replicate 1): 16356
- Fluorescence intensity, fluorescence competitive binding assay, OBP11 ([3]; ligand concentration 6, replicate 2): 18409
- Fluorescence intensity, fluorescence competitive binding assay, OBP11 ([3]; ligand concentration 6, replicate 3): 17383
- Fluorescence intensity, fluorescence competitive binding assay, OBP11 ([3]; ligand concentration 8, replicate 1): 17184
- Fluorescence intensity, fluorescence competitive binding assay, OBP11 ([3]; ligand concentration 8, replicate 2): 18342
- Fluorescence intensity, fluorescence competitive binding assay, OBP11 ([3]; ligand concentration 8, replicate 3): 18652
- Fluorescence intensity, fluorescence competitive binding assay, OBP11 ([3]; ligand concentration 10, replicate 1): 18889
- Fluorescence intensity, fluorescence competitive binding assay, OBP11 ([3]; ligand concentration 10, replicate 2): 17441
- Fluorescence intensity, fluorescence competitive binding assay, OBP11 ([3]; ligand concentration 10, replicate 3): 20338
- Fluorescence intensity, fluorescence competitive binding assay, OBP11 ([3]; ligand concentration 12, replicate 1): 19011
- Fluorescence intensity, fluorescence competitive binding assay, OBP11 ([3]; ligand concentration 12, replicate 2): 18892
- Fluorescence intensity, fluorescence competitive binding assay, OBP11 ([3]; ligand concentration 12, replicate 3): 20835
- Fluorescence intensity, fluorescence competitive binding assay, OBP11 ([3]; ligand concentration 14, replicate 1): 21007
- Fluorescence intensity, fluorescence competitive binding assay, OBP11 ([3]; ligand concentration 14, replicate 2): 21377
- Fluorescence intensity, fluorescence competitive binding assay, OBP11 ([3]; ligand concentration 14, replicate 3): 20817
- Fluorescence intensity, fluorescence competitive binding assay, OBP11 ([3]; ligand concentration 16, replicate 1): 23140
- Fluorescence intensity, fluorescence competitive binding assay, OBP11 ([3]; ligand concentration 16, replicate 2): 21703
- Fluorescence intensity, fluorescence competitive binding assay, OBP11 ([3]; ligand concentration 16, replicate 3): 22422
- Fluorescence intensity, fluorescence competitive binding assay, OBP11 ([3]; ligand concentration 18, replicate 1): 27356
- Fluorescence intensity, fluorescence competitive binding assay, OBP11 ([3]; ligand concentration 18, replicate 2): 26038
- Fluorescence intensity, fluorescence competitive binding assay, OBP11 ([3]; ligand concentration 18, replicate 3): 25306
- Fluorescence intensity, fluorescence competitive binding assay, OBP11 ([3]; ligand concentration 20, replicate 1): 26659
- Fluorescence intensity, fluorescence competitive binding assay, OBP11 ([3]; ligand concentration 20, replicate 2): 25183
- Fluorescence intensity, fluorescence competitive binding assay, OBP11 ([3]; ligand concentration 20, replicate 3): 25906
- IC50 ([4]; SfurOBP2, protein and 1-NPN both 2.0 µM, competitor 2-20 µM, read-out: IC50): > 20 µM
- Fluorescence competitive binding assay, OBP2 (raw fluorescence reading) ([4]; ligand concentration 2 (unit not given), replicate column 1 of 3): 15935
- Fluorescence competitive binding assay, OBP2 (raw fluorescence reading) ([4]; ligand concentration 2 (unit not given), replicate column 2 of 3): 15877
- Fluorescence competitive binding assay, OBP2 (raw fluorescence reading) ([4]; ligand concentration 2 (unit not given), replicate column 3 of 3): 16010
- Fluorescence competitive binding assay, OBP2 (raw fluorescence reading) ([4]; ligand concentration 4 (unit not given), replicate column 1 of 3): 16483
- Fluorescence competitive binding assay, OBP2 (raw fluorescence reading) ([4]; ligand concentration 4 (unit not given), replicate column 2 of 3): 17483
- Fluorescence competitive binding assay, OBP2 (raw fluorescence reading) ([4]; ligand concentration 4 (unit not given), replicate column 3 of 3): 15472
- Fluorescence competitive binding assay, OBP2 (raw fluorescence reading) ([4]; ligand concentration 6 (unit not given), replicate column 1 of 3): 19539
- Fluorescence competitive binding assay, OBP2 (raw fluorescence reading) ([4]; ligand concentration 6 (unit not given), replicate column 2 of 3): 15243
- Fluorescence competitive binding assay, OBP2 (raw fluorescence reading) ([4]; ligand concentration 6 (unit not given), replicate column 3 of 3): 16407
- Fluorescence competitive binding assay, OBP2 (raw fluorescence reading) ([4]; ligand concentration 8 (unit not given), replicate column 1 of 3): 19867
- Fluorescence competitive binding assay, OBP2 (raw fluorescence reading) ([4]; ligand concentration 8 (unit not given), replicate column 2 of 3): 20728
- Fluorescence competitive binding assay, OBP2 (raw fluorescence reading) ([4]; ligand concentration 8 (unit not given), replicate column 3 of 3): 17103
- Fluorescence competitive binding assay, OBP2 (raw fluorescence reading) ([4]; ligand concentration 10 (unit not given), replicate column 1 of 3): 20161
- Fluorescence competitive binding assay, OBP2 (raw fluorescence reading) ([4]; ligand concentration 10 (unit not given), replicate column 2 of 3): 19779
- Fluorescence competitive binding assay, OBP2 (raw fluorescence reading) ([4]; ligand concentration 10 (unit not given), replicate column 3 of 3): 18765
- Fluorescence competitive binding assay, OBP2 (raw fluorescence reading) ([4]; ligand concentration 12 (unit not given), replicate column 1 of 3): 19327
- Fluorescence competitive binding assay, OBP2 (raw fluorescence reading) ([4]; ligand concentration 12 (unit not given), replicate column 2 of 3): 19917
- Fluorescence competitive binding assay, OBP2 (raw fluorescence reading) ([4]; ligand concentration 12 (unit not given), replicate column 3 of 3): 19157
- Fluorescence competitive binding assay, OBP2 (raw fluorescence reading) ([4]; ligand concentration 14 (unit not given), replicate column 1 of 3): 20768
- Fluorescence competitive binding assay, OBP2 (raw fluorescence reading) ([4]; ligand concentration 14 (unit not given), replicate column 2 of 3): 19570
- Fluorescence competitive binding assay, OBP2 (raw fluorescence reading) ([4]; ligand concentration 14 (unit not given), replicate column 3 of 3): 20399
- Fluorescence competitive binding assay, OBP2 (raw fluorescence reading) ([4]; ligand concentration 16 (unit not given), replicate column 1 of 3): 18977
- Fluorescence competitive binding assay, OBP2 (raw fluorescence reading) ([4]; ligand concentration 16 (unit not given), replicate column 2 of 3): 19385
- Fluorescence competitive binding assay, OBP2 (raw fluorescence reading) ([4]; ligand concentration 16 (unit not given), replicate column 3 of 3): 18242
- Fluorescence competitive binding assay, OBP2 (raw fluorescence reading) ([4]; ligand concentration 18 (unit not given), replicate column 1 of 3): 20374
- Fluorescence competitive binding assay, OBP2 (raw fluorescence reading) ([4]; ligand concentration 18 (unit not given), replicate column 2 of 3): 20001
- Fluorescence competitive binding assay, OBP2 (raw fluorescence reading) ([4]; ligand concentration 18 (unit not given), replicate column 3 of 3): 19071
- Fluorescence competitive binding assay, OBP2 (raw fluorescence reading) ([4]; ligand concentration 20 (unit not given), replicate column 1 of 3): 20399
- Fluorescence competitive binding assay, OBP2 (raw fluorescence reading) ([4]; ligand concentration 20 (unit not given), replicate column 2 of 3): 20700
- Fluorescence competitive binding assay, OBP2 (raw fluorescence reading) ([4]; ligand concentration 20 (unit not given), replicate column 3 of 3): 18461
SMILES: C/C(=C\CO)CCC[C@H](C)CCC[C@H](C)CCCC(C)C [plant alcohol]
